# Test results from patent US11013726B2 (Arbutus Biopharma Corporation, priority 2016, dated 2021).
# Counter-ions that a name gives are not always drawn.
# Test system: HBsAg
# Test: HBsAg assay
# Type: cell-based, hepatitis B virus
# Conditions: Hepatitis B virus, HepG2.2.15, 144 h, read-out: sAg EC50, μM, HepG2.2.15 cells, day 6
# Method in brief: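 HepG2.2.15 cells were treated with serially diluted compounds (0.5% DMSO), with medium and compound renewed after 2-3 days. Secreted HBsAg measured at day 6 by chemiluminescence immunoassay; EC50 from dose-response curves. Viability assessed in parallel by CellTiter-Glo.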
row,Compound,EC50
1,"COc1nc2c(s1)CC(C(C)C)n1cc(C(=O)O)c(=O)cc1-2 (centres unmarked) [Example 87, 5-Isopropyl-2-methoxy-9-oxo-4,9-dihydro-5H-thiazolo[4,5-a]quinolizine-8-carboxylic acid]",3.8 µM
2,"COCc1nc2c(s1)CC(C(C)C)n1cc(C(=O)O)c(=O)cc1-2 (centres unmarked) [Example 88, 5-Isopropyl-2-(methoxymethyl)-9-oxo-4,9-dihydro-5H-thiazolo[4,5-a]quinolizine-8-carboxylic acid]",3.1 µM
3,"CC(C)(C)C1Cc2cc3c(cc2-c2cc(=O)c(C(=O)O)cn21)OCCCO3 (centres unmarked) [Example 90, 6-(Tert-butyl)-2-oxo-6,7,11,12-tetrahydro-2H,10H-[1,4]dioxepino[2,3-g]pyrido[2,1-a]isoquinoline-3-carboxylic acid]",0.095 µM
4,"CC(C)(C)C1Cc2cc3c(cc2-c2cc(=O)c(C(=O)O)cn21)OCC1(COC1)CO3 (centres unmarked) [Example 93, 6′-(Tert-butyl)-2′-oxo-6′,7′-dihydro-2′H,10′H,12′H-spiro[oxetane-3,11′-[1,4]dioxepino[2,3-g]pyrido[2,1-a]isoquinoline]-3′-carboxylic acid]",0.42 µM
5,"COCC1COc2cc3c(cc2OC1)-c1cc(=O)c(C(=O)O)cn1C(C(C)(C)C)C3 (centres unmarked) [Example 96, 6-(Tert-butyl)-11-(methoxymethyl)-2-oxo-6,7,11,12-tetrahydro-2H,10H-[1,4]dioxepino[2,3-g]pyrido[2,1-a]isoquinoline-3-carboxylic acid]",0.14 µM
6,"COCCOC1COc2cc3c(cc2OC1)-c1cc(=O)c(C(=O)O)cn1C(C(C)(C)C)C3 (centres unmarked) [Example 97, 6-(Tert-butyl)-11-(2-methoxyethoxy)-2-oxo-6,7,11,12-tetrahydro-2H,10H-[1,4]dioxepino[2,3-g]pyrido[2,1-a]isoquinoline-3-carboxylic acid]",1.4 µM
7,"C=C1COc2cc3c(cc2OC1)-c1cc(=O)c(C(=O)O)cn1C(C(C)(C)C)C3 (centres unmarked) [Example 98, 6-(Tert-butyl)-11-methylene-2-oxo-6,7,11,12-tetrahydro-2H,10H-[1,4]dioxepino[2,3-g]pyrido[2,1-a]isoquinoline-3-carboxylic acid]",0.1 µM
8,"COCC1(COC)COc2cc3c(cc2OC1)-c1cc(=O)c(C(=O)O)cn1C(C(C)(C)C)C3 (centres unmarked) [Example 99, 6-(Tert-butyl)-11,11-bis(methoxymethyl)-2-oxo-6,7,11,12-tetrahydro-2H,10H-[1,4]dioxepino[2,3-g]pyrido[2,1-a]isoquinoline-3-carboxylic]",0.49 µM
9,"Cc1c2n(cc(C(=O)O)c1=O)C(C(C)(C)C)Cc1cc3c(cc1-2)OCCCO3 (centres unmarked) [Example 100, 6-(Tert-butyl)-1-methyl-2-oxo-6,7,11,12-tetrahydro-2H,10H-[1,4]dioxepino[2,3-g]pyrido[2,1-a]isoquinoline-3-carboxylic acid]",10 µM
10,"C=C1COc2cc3c(cc2OC1)-c1cc(=O)c(CO)cn1C(C(C)(C)C)C3 (centres unmarked) [Example 101, 6-(Tert-butyl)-3-(hydroxymethyl)-1-methylene-6,7,11,12-tetrahydro-2H,10H-[1,4]dioxepino[2,3-g]pyrido[2,1-a]isoquinolin-2-one]",5.8 µM
11,"COC1COc2cc3c(cc2OC1)-c1cc(=O)c(C(=O)O)cn1C(C(C)(C)C)C3 (centres unmarked) [Example 102, 6-(Tert-butyl)-11-methoxy-2-oxo-6,7,11,12-tetrahydro-2H,10H-[1,4]dioxepino[2,3-g]pyrido[2,1-a]isoquinoline-3-carboxylic acid]",0.18 µM
12,"CC(C)(C)C1Cc2cc3c(cc2-c2cc(=O)c(C(=O)O)cn21)OCC(O)CO3 (centres unmarked) [Example 103, 6-(Tert-butyl)-11-hydroxy-2-oxo-6,7,11,12-tetrahydro-2H,10H-[1,4]dioxepino[2,3-g]pyrido[2,1-a]isoquinoline-3-carboxylic acid]",0.05 µM
13,"COc1nc2c(cc1Cl)-c1cc(=O)c(C(=O)O)cn1C(C(C)C)CO2 (centres unmarked) [Example 104, 2-Chloro-7-isopropyl-3-methoxy-11-oxo-6,7-dihydro-11H-dipyrido[1,2-d:3′,2′-f][1,4]oxazepine-10-carboxylic acid]",24.2 µM
14,"CCOP(=O)(OCC)c1cn2c(cc1=O)-c1cc(Cl)c(OCCCOC)cc1CC2C(C)(C)C (centres unmarked) [Example 105, Diethyl (6-(tert-butyl)-10-chloro-9-(3-methoxypropoxy)-2-oxo-6,7-dihydro-2H-pyrido[2,1-a]isoquinolin-3-yl)phosphonate]",6.1 µM
15,"CCOP(=O)(O)c1cn2c(cc1=O)-c1cc(Cl)c(OCCCOC)cc1CC2C(C)(C)C (centres unmarked) [Example 106, Ethyl hydrogen (6-(tert-butyl)-10-chloro-9-(3-methoxypropoxy)-2-oxo-6,7-dihydro-2H-pyrido[2,1-a]isoquinolin-3-yl)phosphonate]",7.2 µM
16,"COCCCOc1cc2c(cc1Cl)-c1cc(=O)c(P(=O)(O)O)cn1C(C(C)(C)C)C2 (centres unmarked) [Example 107, (6-(Tert-butyl)-10-chloro-9-(3-methoxypropoxy)-2-oxo-6,7-dihydro-2H-pyrido[2,1-a]isoquinolin-3-yl)phosphonic acid]",2.5 µM

row,Compound,EC50
1,"COCCCOc1cc2c(nc1OC)-c1cc(=O)c(-c3nnc(C)s3)cn1[C@H](C(C)C)C2 [Example 108, (S)-6-Isopropyl-2-methoxy-3-(3-methoxypropoxy)-9-(5-methyl-1,3,4-thiadiazol-2-yl)-5,6-dihydro-10H-pyrido[1,2-h][1,7]naphthyridin-10-one]",0.045 µM
2,"COCCCOc1cc2c(nc1OC)-c1cc(=O)c(-c3n[nH]c(=S)[nH]3)cn1[C@H](C(C)C)C2 [Example 109, (S)-6-Isopropyl-2-methoxy-3-(3-methoxypropoxy)-9-(5-thioxo-4,5-dihydro-1H-1,2,4-triazol-3-yl)-5,6-dihydro-10H-pyrido[1,2-h][1,7]naphthyridin-10-one]",0.029 µM
3,"COCCCOc1cc2c(nc1OC)-c1cc(=O)c(-c3nnco3)cn1[C@H](C(C)C)C2 [Example 110, (S)-6-Isopropyl-2-methoxy-3-(3-methoxypropoxy)-9-(1,3,4-oxadiazol-2-yl)-5,6-dihydro-10-pyrido[1,2-h][1,7]naphthyridin-10-one]",0.057 µM
4,"COCCCOc1cc2c(nc1OC)-c1cc(=O)c(-c3nc(C)no3)cn1[C@H](C(C)C)C2 [Example 111, (S)-6-isopropyl-2-methoxy-3-(3-methoxypropoxy)-9-(3-methyl-1,2,4-oxadiazol-5-yl)-5,6-dihydro-10H-pyrido[1,2-h][1,7]naphthyridin-10-one]",0.29 µM
5,"COCCCOc1cc2c(nc1OC)-c1cc(=O)c(-c3nc(-c4ccccc4)no3)cn1[C@H](C(C)C)C2 [Example 112, (S)-6-Isopropyl-2-methoxy-3-(3-methoxypropoxy)-9-(3-phenyl-1,2,4-oxadiazol-5-yl)-5,6-dihydro-10H-pyrido[1,2-h][1,7]naphthyridin-10-one]",0.87 µM
6,"COCCCOc1cc2c(nc1OC)-c1cc(=O)c(C#N)cn1[C@H](C(C)C)C2 [Example 113, (S)-6-Isopropyl-2-methoxy-3-(3-methoxypropoxy)-10-oxo-5,10-dihydro-6H-pyrido[1,2-h][1,7]naphthyridine-9-carbonitrile]",1 µM
7,"COCCCOc1cc2c(cc1Cl)-c1cc(=O)c(-n3nn[nH]c3=O)cn1C(C(C)(C)C)C2 (centres unmarked) [Example 114, 6-(Tert-butyl)-10-chloro-9-(3-methoxypropoxy)-3-(5-oxo-4,5-dihydro-1H-tetrazol-1-yl)-6,7-dihydro-2H-pyrido [2,1-a]isoquinolin-2-one]",3 µM
8,"COCCCOc1cc2c(nc1OC)-c1cc(=O)c(-c3nnn[nH]3)cn1[C@H](C(C)C)C2 [Example 115, (S)-6-Isopropyl-2-methoxy-3-(3-methoxypropoxy)-9-(1H-tetrazol-5-yl)-5,6-dihydro-10H-pyrido[1,2-h][1,7]naphthyridin-10-one]",0.09 µM
9,"COCCCOc1cc2c(nc1OC)-c1cc(=O)c(-c3ncn[nH]3)cn1[C@H](C(C)C)C2 [Example 116, (S)-6-Isopropyl-2-methoxy-3-(3-methoxypropoxy)-9-(1H-1,2,4-triazol-5-yl)-5,6-dihydro-10H-pyrido[1,2-h][1,7]naphthyridin-10-one]",0.009 µM
10,"COCCCOc1cc2c(nc1OC)-c1cc(=O)c(C(=O)NO)cn1[C@H](C(C)C)C2 [Example 117, (S)—N-Hydroxy-6-isopropyl-2-methoxy-3-(3-methoxypropoxy)-10-oxo-5,10-dihydro-6H-pyrido[1,2-h][1,7]naphthyridine-9-carboxamide]",0.054 µM
11,"COCCCOc1cc2c(nc1OC)-c1cc(=O)c(C(=O)NS(C)(=O)=O)cn1[C@H](C(C)C)C2 [Example 118, (S)-6-Isopropyl-2-methoxy-3-(3-methoxypropoxy)-N-(methylsulfonyl)-10-oxo-5,10-dihydro-6H-pyrido[1,2-h][1,7]naphthyridine-9-carboxamide]",0.051 µM
12,"COCCCOc1cc2c(cc1Cl)-c1cc(=O)c(NC(=O)OC(C)(C)C)cn1C(C(C)(C)C)C2 (centres unmarked) [Example 119, Tert-butyl N-[6-tert-butyl-10-chloro-9-(3-methoxypropoxy)-2-oxo-6H,7H-pyrido[2,1-a]isoquinolin-3-yl]carbamate]",0.14 µM
13,"COCCCOc1cc2c(cc1Cl)-c1cc(=O)c(N)cn1C(C(C)(C)C)C2 (centres unmarked) [Example 120, 3-Amino-6-tert-butyl-10-chloro-9-(3-methoxypropoxy)-6H,7H-pyrido[2,1-a]isoquinolin-2-one hydrochloride]",3.9 µM
14,"COCCCOc1cc2c(cc1Cl)-c1cc(=O)c(NC(C)=O)cn1C(C(C)(C)C)C2 (centres unmarked) [Example 121, N-[6-Tert-butyl-10-chloro-9-(3-methoxypropoxy)-2-oxo-6H,7H-pyrido[2,1-a]isoquinolin-3-yl]acetamide]",8.6 µM
15,"COCCCOc1cc2c(cc1Cl)-c1cc(=O)c(NC(=O)OC)cn1C(C(C)(C)C)C2 (centres unmarked) [Example 122, Methyl N-[6-tert-butyl-10-chloro-9-(3-methoxypropoxy)-2-oxo-6H,7H-pyrido[2,1-a]isoquinolin-3-yl]carbamate]",17 µM
16,"COCCCOc1cc2c(cc1Cl)-c1cc(=O)c(NC(=O)OCc3ccccn3)cn1C(C(C)(C)C)C2 (centres unmarked) [Example 123, Pyridin-2-ylmethyl (6-(tert-butyl)-10-chloro-9-(3-methoxypropoxy)-2-oxo-6,7-dihydro-2H-pyrido[2,1-a]isoquinolin-3-yl)carbamate]",2.4 µM
